One compound from US10533207B2, “Bioactivity testing structure for single cell tracking using gelling agents” (QuantaMatrix Inc., priority 2014, dated 2020) can be followed below.

As a reminder, the MIC is the least concentration at which growth counts as inhibited. Read a low MIC as inhibition by little substance.

SMILES strings stand for the structures. ≈ marks a conversion by molar mass, not a printed value.

Common to all, as to type: cell-based
The test system of assay [1] is ESBL negative E. coli (ATCC 35218). The experiment in a line: AST on the DAC system at various inoculum concentrations. As to conditions: unit inferred. The text has this:
(§1) The first reason is that large inoculum amounts of antibiotic degrading proteins derived from bacteria may destroy antibiotics and result in an increase in MIC value. The other reason is that larger inoculum amounts of […] bacteria may decrease the number of antibiotic molecules relative to single cells of bacteria and result in an increase in MIC. To verify the reasons for the absence of inoculum effect in the DAC system, ESBL negative E. coli (ATCC 35218), ESBL positive E. coli (ATCC 25922), and clinically obtained E. coli strains, which are well known as a bacterial strain secreting antibiotic-degrading proteins, were tested at inoculum concentrations of 5×10^7, 5×10^6, and 5×10^5 CFU/ml. These concentrations indicate the concentrations of the bacteria in agarose for the DAC system and in liquid for the MDT system.

The subject of assay [2] is clinically obtained E. coli strain #5. The description is as above. As to conditions: #5 strain, unit inferred.
Text: as §1

Assay [3] concerns ESBL positive E. coli (ATCC 25922). Described as above. As to conditions: unit inferred.
Text: as §1

In assay [4] the test system is ESBL negative E. coli (ATCC 35218). The experiment in a line: AST on the MDT system (broth microdilution) at various inoculum concentrations. As to the method:
(§2) The MIC of cefepime against E. coli was determined according to the standard CLSI guideline except for the concentration of bacteria. 16 h after culture at 37° C., broth microdilution wells were examined.
as §1

For assay [5], the system named is clinically obtained E. coli strain #5. The assay is described as above. As to conditions: #5 strain. As to the method:
as §2, §1

Assay [6] has as its system ESBL positive E. coli (ATCC 25922). Described as above. As to the method: as §2, §1
Assay [7] has as its system ESBL positive E. coli strains. Put plainly: Residual efficacy of antibiotic solution after overnight culture, re-tested by MDT. As to conditions: Escherichia coli. How it is done:
At each time point, the culture media were filtered to remove the cells and then added to different DST sets to measure the residual efficacies of the antibiotics. Both broth […] and DAC protocol were performed in the same manner as described above.
The present inventors hypothesized that the reason why the absence of inoculum effect in the DAC system may be because proteins released from bacteria are trapped by agarose and cannot degrade the antibiotic, unlike under broth culture conditions. […] These concentrations indicate the concentrations of the bacteria in […] for the DAC system and in liquid for the MDT system.
Thus, the final concentrations of the bacteria in the DAC and […] systems were the same. Cefepime was used in these tests. After culture overnight, the antibiotic solutions in the wells of the DAC and MDT systems was extracted and filtered to obtain the pure antibiotic. MDT using ESBL positive E. coli strains was conducted using the antibiotic.

Setting [8] is: inoculum 5*10^5 CFU/ml in agarose.
[9] abbreviates: inoculum 5*10^6 CFU/ml in agarose.
Where [10] appears, read: inoculum 5*10^7 CFU/ml in agarose.
[11] abbreviates: inoculum 5*10^5 CFU/ml in liquid, unit not given.
The mark [12] stands for this setting: inoculum 5*10^6 CFU/ml in liquid, unit inferred.
Where [13] appears, read: inoculum 5*10^7 CFU/ml in liquid, unit inferred.

Consider `CO/N=C(\C(=O)N[C@@H]1C(=O)N2C(C(=O)[O-])=C(C[N+]3(C)CCCC3)CS[C@H]12)c1csc(N)n1` [Cefepime], for which the MIC (AST result, DAC) in assay [1] (setting [8]) is 0.06 µg/mL (≈ 0.125 µM); in assay [1] (setting [9]), 0.06 µg/mL (≈ 0.125 µM); in assay [1] (setting [10]) it was 0.06 µg/mL (≈ 0.125 µM); in assay [2] (setting [8]), under 16 µg/mL; in assay [2] (setting [9]) it was under 16 µg/mL; in assay [2] (setting [10]), under 16 µg/mL. For the same compound, the MIC (AST result, DAC) in assay [3] (setting [8]), in assay [3] (setting [9]) and in assay [3] (setting [10]) was 0.03 µg/mL (≈ 0.0624 µM) each time. Also, the “MIC (AST result, MDT)” value in assay [4] (setting [11]) is “All growth”; in assay [4] (setting [12]), 0.03 µg/mL (≈ 0.0624 µM); in assay [4] (setting [13]), 0.03 µg/mL (≈ 0.0624 µM); in assay [5] (setting [11]) it was “All growth”; in assay [5] (setting [12]), 64 µg/mL (≈ 133 µM); in assay [5] (setting [13]) it was 16 µg/mL (≈ 33.3 µM). Also, the results for the “MIC (AST result, MDT)” value in assay [6] (setting [11]), in assay [6] (setting [12]) and in assay [6] (setting [13]) were “All growth”, 4 µg/mL (≈ 8.32 µM) and 0.03 µg/mL (≈ 0.0624 µM), respectively. Also, the MIC in assay [7] (antibiotic solution recovered from DAC wells after overnight culture with 5*10^5 CFU/ml ESBL positive E. coli) amounted to 0.06 µg/mL (≈ 0.125 µM); in assay [7] (antibiotic solution recovered from DAC wells after overnight culture with 5*10^6 CFU/ml ESBL positive E. coli) it was 0.06 µg/mL (≈ 0.125 µM); in assay [7] (antibiotic solution recovered from DAC wells after overnight culture with 5*10^7 CFU/ml ESBL positive E. coli) it was 0.06 µg/mL (≈ 0.125 µM); in assay [7] (antibiotic solution recovered from MDT wells after overnight culture with 5*10^5 CFU/ml ESBL positive E. coli), 0.03 µg/mL (≈ 0.0624 µM); in assay [7] (antibiotic solution recovered from MDT wells after overnight culture with 5*10^6 CFU/ml ESBL positive E. coli) it was 0.125 µg/mL (≈ 0.26 µM); in assay [7] (antibiotic solution recovered from MDT wells after overnight culture with 5*10^7 CFU/ml ESBL positive E. coli), 0.25 µg/mL (≈ 0.52 µM).
